The record followed here is ChEMBL document CHEMBL1125430, “Analogues of the dioxolanes dexoxadrol and etoxadrol as potential phencyclidine-like agents. Synthesis and structure-activity relationships” (J Med Chem, 1992).

The assay is filed under the species Rattus norvegicus. Description: Displacement of [3H]TCP from PCP receptor in tissue preparation of whole rat brain minus cerebellum. It counts as functional, organism-based.

Turning to `CCC1(CC)OC[C@H]([C@@H]2CCCCN2)O1`, the Ki (in general, a measure of affinity in units of concentration, obtained from inhibition or displacement) is 87000 nM.

Molecule `CC[C@]1(c2cccc(O)c2)OC[C@H]([C@@H]2CCCCN2)O1` registered a Ki of 489 nM.

Take `c1ccc(CN2CCCC[C@H]2[C@H]2COC(c3ccccc3)(c3ccccc3)O2)cc1`: affinity was put at a Ki of 10100 nM.

The molecule `CN1CCCC[C@H]1[C@H]1COC(c2ccccc2)(c2ccccc2)O1` showed a Ki of 4400 nM.

For `CC[C@]1(c2ccccc2Cl)OC[C@H]([C@@H]2CCCCN2)O1`, the Ki amounted to 14.3 nM.

Molecule `CC[C@]1(c2ccccc2F)OC[C@H]([C@@H]2CCCCN2)O1` returned a Ki of 36 nM.

Molecule `CNC[C@H]1COC(c2ccccc2)(c2ccccc2)O1` came in with a Ki of 7300 nM.

In turn, `NC[C@H]1COC(c2ccccc2)(c2ccccc2)O1` displayed an inhibitory constant (Ki) of 1400 nM.

As to `CC[C@]1(c2cccc([N+](=O)[O-])c2)OC[C@H]([C@@H]2CCCCN2)O1`, the Ki turned out to be 1320 nM.

On to `CCCCCCCCC[C@]1(c2ccccc2)OC[C@H]([C@@H]2CCCCN2)O1`, for which the affinity corresponds to a Ki of 43000 nM.

`CCCC[C@]1(c2ccccc2)OC[C@H]([C@@H]2CCCCN2)O1`: the Ki turned out to be 200 nM.

As for `CC[C@]1(c2ccc(O)cc2)OC[C@H]([C@@H]2CCCCN2)O1`, the Ki stood at 19900 nM.

Molecule `C=CCN1CCCC[C@H]1[C@H]1COC(c2ccccc2)(c2ccccc2)O1` yielded a Ki of 15200 nM.

Molecule `CCC[C@H](NC)[C@H]1COC(c2ccccc2)(c2ccccc2)O1` returned a Ki of 7000 nM.

`c1ccc(C2(c3ccccc3)OCC(C3CCCCN3)CO2)cc1` (stereo not drawn) yielded a Ki above 100000 nM.

`CC[C@]1(c2cccc(Cl)c2)OC[C@H]([C@@H]2CCCCN2)O1`: the Ki amounted to 59 nM.

The molecule `C1=Cc2ccccc2C2(OC[C@H]([C@@H]3CCCCN3)O2)c2ccccc21` yielded a Ki of 325 nM.

Molecule `CCNC[C@H]1COC(c2ccccc2)(c2ccccc2)O1` yielded a Ki of 8400 nM.

The molecule `C[C@H](N)[C@H]1COC(c2ccccc2)(c2ccccc2)O1` came in with a Ki of 607 nM.

Turning to `CC(C)[C@]1(c2ccccc2)OC[C@H]([C@@H]2CCCCN2)O1`, the Ki was 45 nM.

The molecule `CC[C@]1(c2cccc(N=C=S)c2)OC[C@H]([C@@H]2CCCCN2)O1` came in with a Ki of 590 nM.

`CN[C@@H](C)[C@H]1COC(c2ccccc2)(c2ccccc2)O1` had an inhibition constant Ki of 703 nM.

The molecule `CC[C@]1(c2ccsc2)OC[C@H]([C@@H]2CCCCN2)O1` displayed a Ki of 124 nM.

With `c1ccc(C2(c3ccccc3)OC[C@H]([C@@H]3CCCN3)O2)cc1`, the inhibition constant (Ki) is above 10000 nM.

For the molecule `CCN[C@@H](C)[C@H]1COC(c2ccccc2)(c2ccccc2)O1`, the affinity, expressed as Ki, was 9000 nM.

As to `CCCCCCN1CCCC[C@H]1[C@H]1COC(c2ccccc2)(c2ccccc2)O1`, affinity was put at a Ki of 21200 nM.

The molecule `CC[C@]1(c2ccccc2O)OC[C@H]([C@@H]2CCCCN2)O1` returned a Ki of 293 nM.

For the molecule `CC[C@]1(c2ccc(Cl)cc2)OC[C@H]([C@@H]2CCCCN2)O1`, the affinity corresponds to a Ki of 2800 nM.

Consider `CC[C@]1(c2cccc(N)c2)OC[C@H]([C@@H]2CCCCN2)O1`, for which the Ki was 1230 nM.

The molecule `CCC[C@]1(c2ccccc2)OC[C@H]([C@@H]2CCCCN2)O1` displayed a Ki of 69 nM.

In turn, `CC[C@]1(c2cccs2)OC[C@H]([C@@H]2CCCCN2)O1` returned an inhibitory constant (Ki) of 205 nM.

As for `CCN1CCCC[C@H]1[C@H]1COC(c2ccccc2)(c2ccccc2)O1`, the Ki came out at 6900 nM.

`c1ccc(C2(c3ccccc3)OC[C@@H]([C@@H]3CCCN3)O2)cc1` came in with an inhibition constant Ki of 3300 nM.

With `CC[C@]1(c2ccc(F)cc2)OC[C@H]([C@@H]2CCCCN2)O1`, the Ki was 649 nM.

Consider `C[C@]1(c2ccccc2)OC[C@H]([C@@H]2CCCCN2)O1`, for which the Ki worked out at 847 nM.

`CCC[C@H](N)[C@H]1COC(c2ccccc2)(c2ccccc2)O1` returned a Ki of 3450 nM.

`CCCN1CCCC[C@H]1[C@H]1COC(c2ccccc2)(c2ccccc2)O1` registered a Ki of 6800 nM.

In the case of `c1ccc([C@H]2OC[C@H]([C@@H]3CCCCN3)O2)cc1`, the Ki worked out at 25000 nM.

The molecule `c1ccc2c(c1)-c1ccccc1C21OC[C@H]([C@@H]2CCCCN2)O1` had a Ki of 15500 nM.

Turning to `c1ccc(C2(c3ccccc3)CCC(C3CCCCN3)C2)cc1` (single isomer, unassigned; 40a), the affinity, expressed as Ki, was 52000 nM.

Molecule `c1ccc(C2(c3ccccc3)CCC(C3CCCCN3)C2)cc1` (single isomer, unassigned; 40b) displayed a Ki of 8300 nM.

Take `CC[C@]1(c2ccccc2)OC[C@H]([C@@H]2CCCCN2)O1` [ETOXADROL]: the Ki came out at 107 nM.

As for `c1ccc(C2(N3CCCCC3)CCCCC2)cc1` [PHENCYCLIDINE], the Ki is 80 nM.
